Test results from ChEMBL document CHEMBL6115028, “An Amazing 30-Year Journey around the DABO Family: A Medicinal Chemistry Lesson on a Versatile Class of Non-nucleoside HIV-1 Reverse Transcriptase Inhibitors” (J Med Chem, 2025).
Converted amounts (≈) assume the structure as drawn. Blank lines part the entries; values can stand above or below the compound they belong to.

Tests used:
Aspergillus niger = assay: Antifungal activity against Aspergillus niger assessed as reduction in fungal growth; type: functional
Bacillus cereus = assay: Antibacterial activity against Bacillus cereus ATCC 4342 assessed as inhibition of microbial growth incubated for 24 hrs by microdilution method; type: functional
Candida albicans = assay: Antifungal activity against Candida albicans ATCC 10231 assessed as growth inhibition measured after 48 hrs by CLSI based method; type: functional
Staphylococcus aureus [1] = assay: Antibacterial activity against Staphylococcus aureus ATCC 25923 assessed as reduction in bacterial growth incubated for 18 to 20 hrs by broth microdilution assay; type: functional; settings: time 18-20 hrs
Bacillus subtilis = assay: Antibacterial activity against Bacillus subtilis ATCC 6633 assessed as bacterial growth inhibition measured after 48 hrs by resazurin assay; type: functional
dengue virus type 3 = assay: Antiviral activity Dengue virus 3; type: functional, organism-based
dengue virus type 4 = assay: Antiviral activity Dengue virus 4; type: functional, organism-based
[2] = Cytotoxicity against African green monkey Vero cells; type: toxicity, cell-based; settings: chlorocebus sabaeus
dengue virus type 2 = assay: Antiviral activity Dengue virus 2; type: functional, organism-based
dengue virus type 1 = assay: Antiviral activity Dengue virus 1; type: functional, organism-based
[3] = biological target: T1, Human immunodeficiency virus type 1 reverse transcriptase (Human immunodeficiency virus 1, UniProt Q72547); assay: Inhibition of HIV-1 Reverse transcriptase
[4] = Oral bioavailability in rat; type: ADME, organism-based; settings: in vivo
[5] = test system: Human immunodeficiency virus 1; assay: Antiviral activity against HIV-1 IIIB infected in […] cells assessed as reduction in viral replication measured for 72 hrs; type: functional, organism-based; settings: Human immunodeficiency virus 1, IIIB
[6] = Solubility in water; type: physicochemical
Hepatitis B virus = assay: Antiviral activity against Hepatitis B virus infected in human HepG2.2.15 cells assessed as inhibition of HBV DNA production by qRT-PCR analysis; type: functional, organism-based
HepG2 2.2.15 = assay: Cytotoxicity against human HepG2.2.15 cells assessed as reduction in cell growth by MTT assay; type: functional
[7] = Selectivity index, ratio of CC50 for human C8166 cells to EC50 for antiviral activity against HIV-1 IIIB infected in human C8166 cells; type: toxicity, cell-based; settings: read-out: Ratio CC50/EC50
[8] = test system: Human immunodeficiency virus 1; assay: Antiviral activity against HIV-1 IIIB infected in human C8166 cells assessed as reduction in virus-induced cytopathic effect incubated for 3 days by MTT assay; type: functional, organism-based; settings: Human immunodeficiency virus 1, IIIB, C8166, 72 h
[9] = test system: Human immunodeficiency virus 1; assay: Antiviral activity against wild type HIV-1 IIIB infected in human MT4 cells; type: functional, organism-based; settings: Human immunodeficiency virus 1, IIIB
C8166 = assay: Cytotoxicity against human C8166 cells assessed as reduction in cell viability incubated for 72 hrs by MTT assay; type: functional
Zika virus = assay: Antiviral activity against Zika virus infected in Vero cells assessed as reduction in viral DNA replication; type: functional, organism-based
[10] = Cytotoxicity against African green monkey Vero cells assessed as reduction in cell viability measured after 96 hrs by MTT assay; type: toxicity, cell-based; settings: chlorocebus sabaeus
[11] = Inhibition of Hepatitis C virus NS5B RNA dependent RNA polymerase; design: species or system Hepacivirus hominis
[12] = Cytotoxicity against African green monkey Vero cells assessed as reduction in cell growth measured after 96 hrs by MTT assay; type: toxicity, cell-based; settings: chlorocebus sabaeus
[13] = biological target: T1, Human immunodeficiency virus type 1 reverse transcriptase; assay: Inhibition of recombinant HIV-1 reverse transcriptase associated RNA-dependent DNA polymerase activity
[14] = test system: Human immunodeficiency virus 1; assay: Antiviral activity against HIV-1 infected in human MT4 cells assessed as reduction in virus induced cytopathic effect measured for 4 days by MTT assay; type: functional, organism-based; settings: Human immunodeficiency virus 1, MT4, 96 h
MT4 = assay: Cytotoxicity against human MT4 cells assessed as reduction in cell viability by MTT assay; type: functional
[15] = Selectivity index, ratio of CC50 for human MT4 cells to EC50 for antiviral activity against HIV-1 infected in human MT4 cells; type: toxicity, cell-based; settings: read-out: Ratio CC50/EC50
[16] = Toxicity in African green monkey Vero cells assessed as reduction in cell viability incubated for 72 hrs by MTT assay; type: cell-based; settings: chlorocebus sabaeus, read-out: TD50
Staphylococcus aureus [17] = assay: Antibacterial activity against Staphylococcus aureus assessed as reduction in microbial growth measured for 18 hrs by CLSI based broth microdilution method; type: functional
[18] = Toxicity in human C8166 cells assessed as reduction in cell viability incubated for 72 hrs by MTT assay; type: cell-based; settings: read-out: TD50
[19] = test system: Human immunodeficiency virus 1; assay: Antiviral wild type activity against HIV-1 Ba-L infected in human TZM-bl cells assessed as reduction in virus-induced cytopathic effect incubated for 3 days by MTT assay; type: functional, organism-based; settings: Human immunodeficiency virus 1, Ba-L, 72 h
[20] = test system: Human immunodeficiency virus 1; assay: Antiviral wild type activity against HIV-1 IIIB infected in human C8166 cells assessed as reduction in virus-induced cytopathic effect incubated for 3 days by MTT assay; type: functional, organism-based; settings: Human immunodeficiency virus 1, IIIB, C8166, 72 h
[21] = test system: Human immunodeficiency virus 1; assay: Antiviral wild type activity against HIV-1 TC-1 infected in human PBMC cells assessed as reduction in virus-induced cytopathic effect incubated for 3 days by MTT assay; type: functional, organism-based; settings: Human immunodeficiency virus 1, TC-1, PBMC, 72 h
[22] = test system: Human immunodeficiency virus 1; assay: Antiviral wild type activity against HIV-1 WAN infected in human PBMC cells assessed as reduction in virus-induced cytopathic effect incubated for 3 days by MTT assay; type: functional, organism-based; settings: Human immunodeficiency virus 1, WAN, 72 h
[23] = test system: Human immunodeficiency virus 1; assay: Antiviral […] activity against HIV-1 A17 harboring reverse transcriptase K103N/Y181C double mutant infected in human C8166 cells assessed as reduction in virus-induced cytopathic effect incubated for 3 days by MTT assay; type: functional, organism-based; settings: Human immunodeficiency virus 1, A17, C8166, 72 h
[24] = Selectivity index, ratio of CC50 for Vero cells to EC50 for antiviral activity against HIV-1 infected in Vero cells; type: toxicity, cell-based; settings: monkey, read-out: Ratio CC50/EC50
[25] = Cytotoxicity against African green monkey Vero cells assessed as reduction in cell viability incubated for 72 hrs by MTT assay; type: toxicity, cell-based; settings: chlorocebus sabaeus

- MIC (Aspergillus niger): 75 µg/mL (≈ 157 µM)
- MIC (Bacillus cereus): 75 µg/mL
- MIC (Candida albicans): 25 µg/mL (≈ 52.4 µM)
- MIC (Staphylococcus aureus [1]): 25 µg/mL (≈ 52.4 µM)
- MIC (Bacillus subtilis): 100 µg/mL (≈ 209 µM)
Compound: CCc1c(Cc2ccc3c(c2)OCO3)nc(SCCCN2C(=O)c3ccccc3C2=O)[nH]c1=O

- EC50 (dengue virus type 3): 6.8 µM
- EC50 (dengue virus type 4): 11.4 µM
- EC50 (dengue virus type 2): 13.2 µM
- EC50 (dengue virus type 1): 17.5 µM
Compound: CCc1c(CC2CCCCC2)nc(SCc2n[nH]c(-c3ccc(F)cc3)c2Cl)[nH]c1=O
- CC50 [2]: > 200 µM

- MIC (Aspergillus niger): 75 µg/mL (≈ 207 µM)
- MIC (Bacillus cereus): 100 µg/mL
- MIC (Candida albicans): 50 µg/mL (≈ 138 µM)
- MIC (Staphylococcus aureus [1]): 25 µg/mL (≈ 69.2 µM)
- MIC (Bacillus subtilis): 50 µg/mL (≈ 138 µM)
Compound: CCc1c(Cc2ccc3c(c2)OCO3)nc(SCCN(C)C)[nH]c1=O

Compound: CCc1c(CC2CCCCC2)nc(SCC(=O)c2ccc(OP(=O)(OC)OC)cc2)[nH]c1=O
- IC50 [3]: 0.75 µM
- bioavailability [4]: 14.6%
- EC50 [5]: 0.01 µM
- solubility [6]: 6.4 µM (≈ 3.17 µg/mL)

- EC50 (Hepatitis B virus): 0.2 µM
Compound: O=c1[nH]c(SC2OC[C@H](O)[C@@H](O)[C@@H]2O)nc(Cc2ccccc2)c1Cc1ccccc1 (some centres undefined)
- CC50 (HepG2 2.2.15): > 100 µM

Compound: CCc1c(CC23CC4CC(CC(C4)C2)C3)nc(SCC(=O)c2ccccc2)[nH]c1=O
- selectivity ratio [7]: 107
- EC50 [8]: 0.19 µM
- EC50 [9]: 0.19 µM
- CC50 (C8166): 20.4 µM

Compound: CCc1c(CC2CCCCC2)nc(SCC(=O)Nc2cc(F)cc(F)c2)[nH]c1=O
- EC50 (Zika virus): > 50 µM
- CC50 at 96 h [10]: > 10 µM
- IC50 [11]: 0.089 µM
- CC50 at 96 h [12]: 60.2 µM

Compound: CCC(C)Oc1nc(N)cc(S(=O)(=O)c2cccc(C)c2)n1 (centres undefined)
- IC50 [13]: 26.5 µM
- EC50 [14]: 4.7 µM
- CC50 (MT4): > 200 µM
- selectivity ratio [15]: > 43

Compound: CCc1c(CC23CC4CC(CC(C4)C2)C3)nc(SCC(=O)c2ccc(OC)cc2)[nH]c1=O
- selectivity ratio [7]: 172
- EC50 [8]: 0.1 µM
- EC50 [9]: 0.1 µM
- CC50 (C8166): 17.2 µM

- MIC (Staphylococcus aureus [17]): 6.2 µg/mL
Compound: COc1ccc(C(Cl)(Cl)c2cc(Cl)nc(OC)n2)cc1
- CC50 at 72 h [16]: 12.5 µg/mL (≈ 37.5 µM)
- CC50 at 72 h [18]: 25 µg/mL (≈ 74.9 µM)

Compound: CCc1c(CC2CCCCC2)nc(SCc2cc(-c3ccc(SC)cc3)[nH]n2)[nH]c1=O
- EC50 [19]: 0.193 µM
- EC50 [20]: 0.018 µM
- EC50 [21]: 0.055 µM
- EC50 [22]: 0.165 µM
- EC50 [8]: 0.011 µM
- EC50 [23]: 4.87 µM

Compound: Cc1c(Sc2ccccc2)n(COCCO)c(=O)[nH]c1=O [HEPT]
- selectivity ratio [24]: 106
- CC50 at 72 h [25]: 740 µM
- EC50 [5]: 7 µM
